Consider nine compounds from ChEMBL document CHEMBL1201862, “PubChem BioAssay data set” (2004).

Some test systems named below: 786-0; A549; DU-145; HCT-116; KM12; LOX IMVI; M14; MDA-MB-231; NCI-H226; NCI-H460; OVCAR-8; PC-3; SK-MEL-28; SN12C; SNB-19; SNB-75; UO-31; CCRF-CEM; MDA-N.
Holding throughout (experiment): inhibition of tumour cell growth, NCI panel, 48 h

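Step 1: Grow cells in 96-well plates. Step 2: Expose to compound for 48 hours at 5 concentrations. Step 3: Interpolate endpoints linearly; if unreached, use highest concentration. The concentration for 50% growth inhibition is given as GI50.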 Activity calls are given as the source filed them. Rule as the data show it: active = GI50 up to about 1.1 µM and inactive = higher.

Consider `Cc1cc(SCC(=O)c2ccccc2)nc2ccccc12`, for which the GI50 is > 100 µM (inactive) with 786-0; 67.1 µM (inactive) in the assay on A549; > 100 µM (inactive) with DU-145; > 100 µM (inactive) in the assay with HCT-116; > 100 µM (inactive) with KM12; > 100 µM (inactive) in the assay on LOX IMVI. In addition, the GI50 in the assay with M14 is 92.3 µM (inactive); with MDA-MB-231 it was > 100 µM (inactive); in the assay on NCI-H226 it was > 100 µM (inactive); in the assay with NCI-H460 it was > 100 µM (inactive); in the assay on OVCAR-8 it was > 100 µM (inactive); in the assay with PC-3, > 100 µM (inactive). The GI50 in the assay with SK-MEL-28 is > 100 µM (inactive); in the assay with SN12C, > 100 µM (inactive); in the assay with SNB-19, > 100 µM (inactive); in the assay with SNB-75 it was 36.7 µM (inactive); with UO-31 it was 73.5 µM (inactive).

As for `CCOc1cc2c(c(OCC)c1O)CC[C@@H]1[C@@H]2CC[C@]2(C)[C@@H](O)CC[C@@H]12`, the GI50 was 2.45 µM (inactive) in the assay on 786-0; 7.11 µM (inactive) in the assay on A549; 1.7 µM (inactive) in the assay with CCRF-CEM; 6.03 µM (inactive) in the assay on KM12; 2.23 µM (inactive) in the assay on LOX IMVI; 3.05 µM (inactive) in the assay on M14. Further, the GI50 with MDA-MB-231 is 2.62 µM (inactive); in the assay on MDA-N, 0.234 µM (active); in the assay with NCI-H226 it was 15.9 µM (inactive); in the assay on OVCAR-8 it was 7.59 µM (inactive); in the assay with SNB-19, 1.25 µM (inactive); in the assay on SNB-75, 0.587 µM (active). The GI50 in the assay with UO-31 was 9.27 µM (inactive).

Take `[N-]=[N+]=NI1OC(C(F)(F)F)(C(F)(F)F)c2ccccc21`: the GI50 with 786-0 was 15.5 µM (inactive); with A549 it was 14.9 µM (inactive); in the assay on CCRF-CEM it was 7.85 µM (inactive); in the assay with DU-145 it was 18 µM (inactive); with HCT-116, 17.3 µM (inactive); in the assay on KM12 it was 15.6 µM (inactive). Further, the GI50 in the assay on LOX IMVI was 15.2 µM (inactive); in the assay with M14, 31.2 µM (inactive); in the assay on MDA-MB-231 it was 15.1 µM (inactive); with NCI-H226, 18.4 µM (inactive); in the assay on OVCAR-8 it was 16.3 µM (inactive); in the assay on PC-3 it was 15.7 µM (inactive). The GI50 with SK-MEL-28 was 13.9 µM (inactive); in the assay with SN12C it was 14.6 µM (inactive); with SNB-19 it was > 100 µM (inactive); with SNB-75 it was 13.5 µM (inactive); with UO-31, 11 µM (inactive).

Regarding `CC(=O)Oc1cc2c[n+](C)c3c4cc(OC(C)=O)c(OC(C)=O)cc4ccc3c2cc1OC(C)=O`, the GI50 with 786-0 is 1.59 µM (inactive); in the assay with A549 it was 12.8 µM (inactive); in the assay with DU-145, 3.78 µM (inactive); with HCT-116 it was 2.3 µM (inactive); with KM12, 5.46 µM (inactive); in the assay with LOX IMVI it was 2.82 µM (inactive). The GI50 in the assay on M14 was 4.38 µM (inactive); in the assay on MDA-N, 5.51 µM (inactive); with NCI-H226 it was 1.54 µM (inactive); in the assay on NCI-H460, 4.93 µM (inactive); in the assay on OVCAR-8 it was 2.73 µM (inactive); in the assay with PC-3, 4.07 µM (inactive). For the same compound, the GI50 in the assay on SK-MEL-28 was > 100 µM (inactive); with SN12C it was 3.43 µM (inactive); with SNB-19, 2.3 µM (inactive); in the assay with UO-31, 1.36 µM (inactive).

`CN(C)c1nc(NN)c2c(-c3ccccc3)c(-c3ccccc3)oc2n1`: the GI50 is > 100 µM (inactive) in the assay on 786-0; > 100 µM (inactive) with A549; 52.5 µM (inactive) in the assay on CCRF-CEM; > 100 µM (inactive) in the assay with DU-145; > 100 µM (inactive) with HCT-116; > 100 µM (inactive) in the assay with KM12. The GI50 in the assay with LOX IMVI, in the assay on M14, with MDA-MB-231, in the assay with NCI-H226, in the assay with OVCAR-8 and in the assay with SK-MEL-28 was > 100 µM (inactive) each time. Further, the GI50 in the assay on SN12C is > 100 µM (inactive); in the assay on SNB-19 it was > 100 µM (inactive); in the assay on SNB-75 it was 96.8 µM (inactive); in the assay with UO-31 it was > 100 µM (inactive).

Consider `O=C(O)c1cc2ccccc2c(/N=N/c2ccc(S(=O)(=O)Nc3ncccn3)cc2)c1O`, for which the GI50 in the assay on 786-0, in the assay with A549, with CCRF-CEM, in the assay on HCT-116, with KM12 and in the assay on M14 was > 100 µM (inactive) each time. Moreover, the GI50 in the assay on MDA-MB-231, with NCI-H226, in the assay on NCI-H460, in the assay with OVCAR-8, in the assay on PC-3 and with SK-MEL-28 was > 100 µM (inactive) in each case. The GI50 in the assay on SNB-19, in the assay with SNB-75 and with UO-31 was > 100 µM (inactive) in each case.

Regarding `COC1O[C@H]2[C@H]3[C@@H]1[C@@H](OS(=O)(=O)c1ccc(C)cc1)C(=O)N3C[C@H]2O` (some centres not stated), the GI50 with 786-0, with A549, in the assay on DU-145, in the assay with HCT-116, with KM12 and with LOX IMVI was > 100 µM (inactive) in each case. Also, the GI50 is > 100 µM (inactive) in the assay on M14; > 100 µM (inactive) in the assay with MDA-MB-231; > 100 µM (inactive) in the assay on NCI-H226; > 100 µM (inactive) in the assay on NCI-H460; > 100 µM (inactive) in the assay with OVCAR-8; 81.8 µM (inactive) with PC-3. Besides, the GI50 in the assay with SK-MEL-28, in the assay with SNB-19 and in the assay with UO-31 was > 100 µM (inactive) each time.

With `CCN(CCN(CC)C(=O)Nc1ccccc1)C(=O)Nc1ccccc1`, the GI50 in the assay on 786-0, in the assay on A549, in the assay with CCRF-CEM, in the assay with DU-145, with HCT-116 and in the assay with LOX IMVI was > 100 µM (inactive) each time. For the same compound, the GI50 in the assay with M14, in the assay on MDA-MB-231, in the assay with NCI-H226, in the assay with NCI-H460, in the assay with OVCAR-8 and in the assay on PC-3 was > 100 µM (inactive) each time. Besides, the GI50 in the assay with SK-MEL-28, with SN12C, in the assay with SNB-19, with SNB-75 and in the assay on UO-31 was > 100 µM (inactive) each time.

As for `c1ccc2cc3c(cc2c1)nc1ccccn13`, the GI50 with 786-0 was > 100 µM (inactive); in the assay with A549 it was > 100 µM (inactive); with CCRF-CEM, > 100 µM (inactive); in the assay on DU-145, > 100 µM (inactive); with HCT-116 it was 96.2 µM (inactive); with KM12 it was > 100 µM (inactive). The GI50 in the assay with M14, in the assay on MDA-N, in the assay with NCI-H226, with OVCAR-8, in the assay with PC-3 and in the assay on SK-MEL-28 was > 100 µM (inactive) in each case. The GI50 with SN12C, in the assay on SNB-19, in the assay on SNB-75 and in the assay on UO-31 was > 100 µM (inactive) in each case.
